# The supplement of paper PMC11208160
# Assay: recombinant UMI read abundance after kanamycin selection (control-corrected) (log10(CPM+1)); higher = more efficient recombination; extreme values may be limits of the assay; sequences stand for … in AGTGCAGAGAAAATCGGCCAGTTTTCTCTGCCTGCAGTCCGCATGCCGTGGGACCCCTTGGGTTCTAACCTGTTGCCTAGATTTATGCAGCGGACTGCCTTTCTCCCAAAGTGATAAACCGG…AGGTTGGTTTCACT; site = the 11-nt donor
# Outline: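 Each donor and donor-binding-loop pair was tracked by a 12-nt UMI on a plasmid carrying a promoterless kanamycin gene. With a second plasmid supplying a fixed target and T7-inducible IS621 bridge recombinase, the pool was plated in Escherichia coli on IPTG (0.07 mM) plus kanamycin or unselected. Sequencing of recombinant UMIs across the donor–target junction gave counts expressed as log10(CPM+1) after replicate averaging and control-derived scaling.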
row,Sequence,recombinant UMI read abundance (log10)
1,GAGAAGCCATGGACCGGTTTTCCCGGTAATCCGTATTTGGG (site GGGAAGCCTCC),0
2,GAGAAGCCATGGACCGGTTTTCCCGGTAATCCGTATTTGGG (site GTGAAGCCTCC),0.0251
3,GAGAATCCATGGACCGGTTTTCCCGGTAATCCGTATTTGTT (site CGGAATCCTAA),0
4,GAGAATCCATGGACCGGTTTTCCCGGTAATCCGTATTTGTT (site GAGAATCCTAA),0
5,GAGACGTCATGGACCGGTTTTCCCGGTAATCCGTATTTGCC (site GAGACGTCTGG),2.04
6,GAGCACGCATGGACCGGTTTTCCCGGTAATCCGTATTTGGG (site AAGCACGCTCC),0.0191
7,GAGCACGCATGGACCGGTTTTCCCGGTAATCCGTATTTGGG (site CAGCACGCTCC),0.0292
8,GAGCACGCATGGACCGGTTTTCCCGGTAATCCGTATTTGGG (site GAGCACGCTCC),0.468
9,GAGCACGCATGGACCGGTTTTCCCGGTAATCCGTATTTGGG (site TAGCACGCTCC),0.517
10,GAGCACTCATGGACCGGTTTTCCCGGTAATCCGTATTTGCG (site GAGCACTCTCG),3.08
11,GAGCCCACATGGACCGGTTTTCCCGGTAATCCGTATTTGAA (site GAGCCCACTTT),1.73
12,GAGCCCTCATGGACCGGTTTTCCCGGTAATCCGTATTTGTC (site GAGCCCTCTGA),3.73
13,GAGCCGACATGGACCGGTTTTCCCGGTAATCCGTATTTGGC (site GAGCCGACTGC),0
14,GAGCGCACATGGACCGGTTTTCCCGGTAATCCGTATTTGAT (site GAGCACACTAT),1.07
15,GAGCGCACATGGACCGGTTTTCCCGGTAATCCGTATTTGAT (site GAGCCCACTAT),0.285
16,GAGCGCACATGGACCGGTTTTCCCGGTAATCCGTATTTGAT (site GAGCGCACTAT),1.73
17,GAGCGCACATGGACCGGTTTTCCCGGTAATCCGTATTTGAT (site GAGCTCACTAT),0.111
18,GAGCGTCCATGGACCGGTTTTCCCGGTAATCCGTATTTGGG (site GAGCGTCCTCC),0.0151
19,GAGCGTTCATGGACCGGTTTTCCCGGTAATCCGTATTTGAA (site GAGCGTTCTTT),2.83

row,Sequence,recombinant UMI read abundance (log10)
1,GAGCTCACATGGACCGGTTTTCCCGGTAATCCGTATTTGAT (site AAGCTCACTAT),1.48
2,GAGCTCACATGGACCGGTTTTCCCGGTAATCCGTATTTGAT (site CAGCTCACTAT),0.963
3,GAGCTCACATGGACCGGTTTTCCCGGTAATCCGTATTTGAT (site GAACTCACTAT),0.9
4,GAGCTCACATGGACCGGTTTTCCCGGTAATCCGTATTTGAT (site GACCTCACTAT),0.584
5,GAGCTCACATGGACCGGTTTTCCCGGTAATCCGTATTTGAT (site GAGATCACTAT),0.00858
6,GAGCTCACATGGACCGGTTTTCCCGGTAATCCGTATTTGAT (site GAGCACACTAT),0.159
7,GAGCTCACATGGACCGGTTTTCCCGGTAATCCGTATTTGAT (site GAGCCCACTAT),0.905
8,GAGCTCACATGGACCGGTTTTCCCGGTAATCCGTATTTGAT (site GAGCGCACTAT),0
9,GAGCTCACATGGACCGGTTTTCCCGGTAATCCGTATTTGAT (site GAGCTAACTAT),0
10,GAGCTCACATGGACCGGTTTTCCCGGTAATCCGTATTTGAT (site GAGCTCACTAA),0.00273
11,GAGCTCACATGGACCGGTTTTCCCGGTAATCCGTATTTGAT (site GAGCTCACTAC),0
12,GAGCTCACATGGACCGGTTTTCCCGGTAATCCGTATTTGAT (site GAGCTCACTAG),0.209
13,GAGCTCACATGGACCGGTTTTCCCGGTAATCCGTATTTGAT (site GAGCTCACTAT),2.18
14,GAGCTCACATGGACCGGTTTTCCCGGTAATCCGTATTTGAT (site GAGCTCACTCT),0.206
15,GAGCTCACATGGACCGGTTTTCCCGGTAATCCGTATTTGAT (site GAGCTCACTGT),0.768
16,GAGCTCACATGGACCGGTTTTCCCGGTAATCCGTATTTGAT (site GAGCTCACTTT),0.125
17,GAGCTCACATGGACCGGTTTTCCCGGTAATCCGTATTTGAT (site GAGCTCCCTAT),0.00734
18,GAGCTCACATGGACCGGTTTTCCCGGTAATCCGTATTTGAT (site GAGCTCGCTAT),0.318
19,GAGCTCACATGGACCGGTTTTCCCGGTAATCCGTATTTGAT (site GAGCTCTCTAT),0.783

row,Sequence,recombinant UMI read abundance (log10)
1,GAGCTCACATGGACCGGTTTTCCCGGTAATCCGTATTTGAT (site GAGCTGACTAT),0.0158
2,GAGCTCACATGGACCGGTTTTCCCGGTAATCCGTATTTGAT (site GAGCTTACTAT),0.342
3,GAGCTCACATGGACCGGTTTTCCCGGTAATCCGTATTTGAT (site GAGGTCACTAT),0.0104
4,GAGCTCACATGGACCGGTTTTCCCGGTAATCCGTATTTGAT (site GAGTTCACTAT),0.209
5,GAGCTCACATGGACCGGTTTTCCCGGTAATCCGTATTTGAT (site GATCTCACTAT),0.0468
6,GAGCTCACATGGACCGGTTTTCCCGGTAATCCGTATTTGAT (site GCGCTCACTAT),0.011
7,GAGCTCACATGGACCGGTTTTCCCGGTAATCCGTATTTGAT (site GGGCTCACTAT),0.394
8,GAGCTCACATGGACCGGTTTTCCCGGTAATCCGTATTTGAT (site GTGCTCACTAT),0.296
9,GAGCTCACATGGACCGGTTTTCCCGGTAATCCGTATTTGAT (site TAGCTCACTAT),1.66
10,GAGCTCTCATGGACCGGTTTTCCCGGTAATCCGTATTTGAC (site GAGCTCTCTGT),3.55
11,GAGCTTACATGGACCGGTTTTCCCGGTAATCCGTATTTGAT (site GAGCTAACTAT),0.136
12,GAGCTTACATGGACCGGTTTTCCCGGTAATCCGTATTTGAT (site GAGCTCACTAT),0.0125
13,GAGCTTACATGGACCGGTTTTCCCGGTAATCCGTATTTGAT (site GAGCTGACTAT),0.0138
14,GAGCTTACATGGACCGGTTTTCCCGGTAATCCGTATTTGAT (site GAGCTTACTAT),1.77
15,GAGGAGGCATGGACCGGTTTTCCCGGTAATCCGTATTTGTG (site GAGGAGGCTCA),0.576
16,GAGGAGGCATGGACCGGTTTTCCCGGTAATCCGTATTTGTG (site GCGGAGGCTCA),0.367
17,GAGGAGGCATGGACCGGTTTTCCCGGTAATCCGTATTTGTG (site GGGGAGGCTCA),0.0134
18,GAGGAGGCATGGACCGGTTTTCCCGGTAATCCGTATTTGTG (site GTGGAGGCTCA),0.26
19,GAGGCAACATGGACCGGTTTTCCCGGTAATCCGTATTTGCT (site GAGGCAACTAG),1.66
